This is an account of results in ChEMBL document CHEMBL4342404, “Anti-cholinesterase hybrids as multi-target-directed ligands against Alzheimer's disease (1998-2018)” (Bioorg Med Chem, 2019).

Structures are written as SMILES.

Usually IC50 stands for the concentration at which inhibition is half-maximal. In general, inhibition refers to how much of the control response was suppressed.

The target of data set [1] is T1, Acetylcholinesterase (Homo sapiens, UniProt P22303). Put plainly: Inhibition of human erythrocyte acetylcholinesterase using acetylthiocholine as substrate preincubated for 60 mins followed by substrate addition by Ellman's method. In general terms: In Ellman's method for cholinesterases, released thiocholine reacts with DTNB.
T1 sequence (P22303 whole entry): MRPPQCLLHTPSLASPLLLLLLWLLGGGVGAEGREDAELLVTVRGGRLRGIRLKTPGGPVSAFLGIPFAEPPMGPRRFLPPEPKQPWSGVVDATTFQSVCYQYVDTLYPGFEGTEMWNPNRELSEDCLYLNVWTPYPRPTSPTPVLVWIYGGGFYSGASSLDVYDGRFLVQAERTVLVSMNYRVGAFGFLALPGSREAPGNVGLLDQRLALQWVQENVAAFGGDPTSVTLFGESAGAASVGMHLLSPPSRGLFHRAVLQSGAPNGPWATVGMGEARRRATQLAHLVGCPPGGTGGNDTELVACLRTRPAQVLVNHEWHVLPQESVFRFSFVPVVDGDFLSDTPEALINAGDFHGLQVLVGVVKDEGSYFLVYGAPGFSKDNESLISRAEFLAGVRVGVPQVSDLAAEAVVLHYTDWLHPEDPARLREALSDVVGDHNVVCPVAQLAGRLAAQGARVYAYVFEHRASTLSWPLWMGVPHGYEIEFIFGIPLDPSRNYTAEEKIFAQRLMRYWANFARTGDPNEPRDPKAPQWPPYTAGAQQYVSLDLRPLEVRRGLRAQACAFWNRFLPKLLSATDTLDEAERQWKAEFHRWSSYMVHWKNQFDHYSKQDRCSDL
For data set [2], the species on record is Homo sapiens. The data set can be described thus: Selectivity index, ratio of IC50 for human AChE to IC50 for human BuChE.
Data set [3] concerns the target T2, Cholinesterase (Homo sapiens, UniProt P06276). The data set can be described thus: Inhibition of human butyrylcholinesterase using butyrylthiocholine iodide as substrate pretreated followed by substrate addition and measured after 15 mins by Ellman's method.
Data set [4] has as its target T3, Cholinesterase (Equus caballus, UniProt P81908). The data set can be described thus: Inhibition of equine serum BuChE using butyrylthiocholine iodide as substrate pretreated followed by substrate addition and measured after 2 mins by Ellman's method.
The target in data set [5] is T1, Acetylcholinesterase. The data set can be described thus: Inhibition of human acetylcholinesterase using acetylthiocholine as substrate pretreated followed by substrate addition and measured after 15 mins by Ellman's method.
Data set [6] has as its target T4, Acetylcholinesterase (Electrophorus electricus, UniProt O42275). Put plainly: Inhibition of electric eel AChE using acetylthiocholine iodide as substrate pretreated followed by substrate addition and measured after 2 mins by Ellman's method.
The target of data set [7] is T1, Acetylcholinesterase. Put plainly: Inhibition of human acetylcholinesterase by Ellman's method.
For data set [8], the target named is Amine oxidase [flavin-containing] B (Homo sapiens, UniProt P27338). Put plainly: Inhibition of recombinant human MAO-B using p-tyramine as substrate preincubated for 15 mins followed by substrate addition and measured over 15 mins by Amplex red reagent/horseradish peroxidase coupled fluorescence assay.
Chain of Amine oxidase [flavin-containing] B (P27338 whole entry): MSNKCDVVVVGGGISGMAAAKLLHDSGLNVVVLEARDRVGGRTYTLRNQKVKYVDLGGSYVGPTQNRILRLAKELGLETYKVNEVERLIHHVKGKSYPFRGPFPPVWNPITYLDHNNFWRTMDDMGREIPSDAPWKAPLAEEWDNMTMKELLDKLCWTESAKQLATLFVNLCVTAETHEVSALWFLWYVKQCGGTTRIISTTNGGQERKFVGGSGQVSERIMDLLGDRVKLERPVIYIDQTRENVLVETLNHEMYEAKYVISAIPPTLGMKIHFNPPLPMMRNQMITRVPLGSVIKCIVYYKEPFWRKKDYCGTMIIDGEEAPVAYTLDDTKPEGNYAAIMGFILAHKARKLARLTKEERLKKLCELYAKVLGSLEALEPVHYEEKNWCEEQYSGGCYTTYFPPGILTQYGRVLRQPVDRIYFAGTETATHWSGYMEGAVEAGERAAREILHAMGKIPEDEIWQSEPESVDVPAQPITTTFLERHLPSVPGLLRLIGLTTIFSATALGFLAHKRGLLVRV
A short description of data set [9]: Cytotoxicity against human HepG2 cells assessed as cell viability at 1000 uM by MTT assay relative to control. It is filed as cell-based. Particulars: read-out: Activity. A general note: Tetrazolium assays rely on reduction of a dye to a coloured formazan, in cell work by metabolically active cells.
The nature of data set [10]: Antioxidant activity assessed as AAPH radical scavenging activity measured every min for 60 mins by ORAC-FL assay relative to trolox. It is filed as functional.
Data set [11] has as its target T2, Cholinesterase. Put plainly: Inhibition of human serum butyrylcholinesterase using butyrylthiocholine iodide as substrate preincubated for 20 mins followed by substrate addition preincubated for 20 mins followed by substrate addition by Ellman's method.
In data set [12] the target is T1, Acetylcholinesterase.
Data set [13] has as its target T2, Cholinesterase. Put plainly: Inhibition of human butyrylcholinesterase.
The target in data set [14] is T4, Acetylcholinesterase. The data set can be described thus: Inhibition of electric eel AChE using acetylthiocholine iodide as substrate pretreated for 5 mins followed by substrate addition and measured after 2 mins by Ellman's method.
The target in data set [15] is T2, Cholinesterase. Put plainly: Inhibition of human serum butyrylcholinesterase using butyrylthiocholine iodide as substrate preincubated for 20 mins followed by substrate addition by Ellman's method.
The target in data set [16] is Amyloid-beta precursor protein (Homo sapiens) (UniProt P05067). Put plainly: Inhibition of HFIP pretreated amyloid beta (1-42) (unknown origin) self aggregation at 10 uM incubated for 24 hrs by thioflavin T based fluorescence assay relative to control.
Chain of Amyloid-beta precursor protein (Homo sapiens) (P05067 whole entry): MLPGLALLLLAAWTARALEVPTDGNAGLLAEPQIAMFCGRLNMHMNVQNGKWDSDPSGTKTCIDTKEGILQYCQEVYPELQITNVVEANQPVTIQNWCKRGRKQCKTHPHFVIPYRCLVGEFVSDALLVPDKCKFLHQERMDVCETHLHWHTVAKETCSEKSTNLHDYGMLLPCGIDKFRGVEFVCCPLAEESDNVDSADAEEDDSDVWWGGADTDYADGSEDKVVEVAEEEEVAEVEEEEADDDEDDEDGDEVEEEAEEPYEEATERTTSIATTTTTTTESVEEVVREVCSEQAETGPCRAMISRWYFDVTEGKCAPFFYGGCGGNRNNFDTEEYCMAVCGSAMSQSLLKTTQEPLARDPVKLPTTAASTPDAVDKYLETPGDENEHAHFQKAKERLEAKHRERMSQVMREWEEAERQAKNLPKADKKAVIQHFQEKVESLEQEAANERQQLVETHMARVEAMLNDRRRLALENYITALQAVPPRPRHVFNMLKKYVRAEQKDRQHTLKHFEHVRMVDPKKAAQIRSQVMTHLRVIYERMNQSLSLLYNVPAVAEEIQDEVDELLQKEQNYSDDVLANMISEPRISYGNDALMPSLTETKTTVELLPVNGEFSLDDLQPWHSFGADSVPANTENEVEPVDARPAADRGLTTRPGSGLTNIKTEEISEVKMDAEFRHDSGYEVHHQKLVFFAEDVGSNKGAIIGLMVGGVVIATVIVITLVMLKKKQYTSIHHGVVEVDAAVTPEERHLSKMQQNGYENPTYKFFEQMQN
Data set [17] has as its target T1, Acetylcholinesterase. Put plainly: Inhibition of human AChE-induced amyloid beta 1 to 40 (unknown origin) aggregation at 100 uM by thioflavin-T fluorescence method relative to control.
The target of data set [18] is T5, Beta-secretase 1 (Homo sapiens, UniProt P56817). The data set can be described thus: Inhibition human BACE1 expressed in baculovirus expression system at 10 uM using Panvera peptide as substrate preincubated for 60 mins followed by substrate addition and measured after 60 mins by spectrofluorometric assay relative to control.
T5 sequence (P56817 whole entry): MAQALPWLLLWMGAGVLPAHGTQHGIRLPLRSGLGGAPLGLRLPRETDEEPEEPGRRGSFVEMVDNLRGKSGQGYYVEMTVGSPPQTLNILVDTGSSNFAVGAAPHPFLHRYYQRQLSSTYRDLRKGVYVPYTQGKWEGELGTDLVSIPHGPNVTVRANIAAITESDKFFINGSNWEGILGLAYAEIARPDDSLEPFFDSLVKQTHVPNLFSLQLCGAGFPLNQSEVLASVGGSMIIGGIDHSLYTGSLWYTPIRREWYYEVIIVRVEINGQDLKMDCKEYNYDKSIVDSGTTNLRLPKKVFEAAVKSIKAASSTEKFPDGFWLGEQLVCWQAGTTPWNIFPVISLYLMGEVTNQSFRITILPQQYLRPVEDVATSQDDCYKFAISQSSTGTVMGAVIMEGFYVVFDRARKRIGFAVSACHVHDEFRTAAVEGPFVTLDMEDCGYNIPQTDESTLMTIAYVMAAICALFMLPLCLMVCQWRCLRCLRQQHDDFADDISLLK
The target of data set [19] is T5, Beta-secretase 1. The data set can be described thus: Inhibition human BACE1 expressed in baculovirus expression system using Panvera peptide as substrate preincubated for 60 mins followed by substrate addition and measured after 60 mins by spectrofluorometric assay.
Data set [20] addresses T1, Acetylcholinesterase. The data set can be described thus: Inhibition of human Acetylcholinesterase using acetylthiocholine as substrate preincubated for 20 mins followed by substrate addition by Ellman's method.
Data set [21] has as its target Acetylcholinesterase (Rattus norvegicus) (UniProt P37136). The data set can be described thus: Inhibition of acetylcholinesterase in Wistar rat primary cortical neuron cells assessed as reduction in amyloidbeta40 level at […] incubated for 24 hrs by ELISA relative to control. Background: ELISA stands for enzyme-linked immunosorbent assay.
For data set [22], the target named is T3, Cholinesterase. Put plainly: Inhibition of equine serum BuChE using butyrylthiocholine iodide as substrate pretreated 60 mins followed by substrate addition by Ellman's method.
The target of data set [23] is T2, Cholinesterase. The data set can be described thus: Inhibition of human butyrylcholinesterase by Ellman's method.

T2 sequence (P06276 whole entry): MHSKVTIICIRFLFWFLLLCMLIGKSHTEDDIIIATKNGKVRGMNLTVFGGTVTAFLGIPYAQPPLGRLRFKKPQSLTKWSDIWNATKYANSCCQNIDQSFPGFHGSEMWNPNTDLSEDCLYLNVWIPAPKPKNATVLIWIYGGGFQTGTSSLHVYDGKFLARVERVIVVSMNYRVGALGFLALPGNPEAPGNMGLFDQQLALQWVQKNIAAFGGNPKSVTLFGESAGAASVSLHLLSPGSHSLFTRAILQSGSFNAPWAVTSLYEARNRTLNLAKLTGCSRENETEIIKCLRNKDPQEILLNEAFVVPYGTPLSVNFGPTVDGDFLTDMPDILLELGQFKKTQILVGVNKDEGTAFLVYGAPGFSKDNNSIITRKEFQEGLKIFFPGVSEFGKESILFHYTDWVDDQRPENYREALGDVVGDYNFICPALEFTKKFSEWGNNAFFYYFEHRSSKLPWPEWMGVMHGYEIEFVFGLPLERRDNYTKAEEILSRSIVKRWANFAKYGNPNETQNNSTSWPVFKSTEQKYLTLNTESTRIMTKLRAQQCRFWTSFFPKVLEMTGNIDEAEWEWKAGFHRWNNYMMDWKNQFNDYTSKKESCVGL
T3 sequence (P81908 whole entry): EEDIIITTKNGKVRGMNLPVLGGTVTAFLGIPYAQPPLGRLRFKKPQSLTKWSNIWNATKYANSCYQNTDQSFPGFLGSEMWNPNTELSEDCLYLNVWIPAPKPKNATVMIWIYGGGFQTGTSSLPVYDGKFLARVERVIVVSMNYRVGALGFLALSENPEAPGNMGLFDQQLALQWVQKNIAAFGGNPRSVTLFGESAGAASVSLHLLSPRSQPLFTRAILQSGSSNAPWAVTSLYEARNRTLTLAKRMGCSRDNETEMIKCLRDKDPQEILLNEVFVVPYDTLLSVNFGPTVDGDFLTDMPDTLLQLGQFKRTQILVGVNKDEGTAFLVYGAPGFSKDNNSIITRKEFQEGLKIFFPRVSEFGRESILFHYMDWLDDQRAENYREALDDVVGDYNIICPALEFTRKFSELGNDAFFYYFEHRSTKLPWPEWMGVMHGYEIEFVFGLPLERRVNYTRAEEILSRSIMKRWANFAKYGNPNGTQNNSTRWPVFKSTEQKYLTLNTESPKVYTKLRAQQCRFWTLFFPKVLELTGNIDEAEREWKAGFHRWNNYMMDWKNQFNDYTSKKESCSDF
T4 sequence (O42275 whole entry): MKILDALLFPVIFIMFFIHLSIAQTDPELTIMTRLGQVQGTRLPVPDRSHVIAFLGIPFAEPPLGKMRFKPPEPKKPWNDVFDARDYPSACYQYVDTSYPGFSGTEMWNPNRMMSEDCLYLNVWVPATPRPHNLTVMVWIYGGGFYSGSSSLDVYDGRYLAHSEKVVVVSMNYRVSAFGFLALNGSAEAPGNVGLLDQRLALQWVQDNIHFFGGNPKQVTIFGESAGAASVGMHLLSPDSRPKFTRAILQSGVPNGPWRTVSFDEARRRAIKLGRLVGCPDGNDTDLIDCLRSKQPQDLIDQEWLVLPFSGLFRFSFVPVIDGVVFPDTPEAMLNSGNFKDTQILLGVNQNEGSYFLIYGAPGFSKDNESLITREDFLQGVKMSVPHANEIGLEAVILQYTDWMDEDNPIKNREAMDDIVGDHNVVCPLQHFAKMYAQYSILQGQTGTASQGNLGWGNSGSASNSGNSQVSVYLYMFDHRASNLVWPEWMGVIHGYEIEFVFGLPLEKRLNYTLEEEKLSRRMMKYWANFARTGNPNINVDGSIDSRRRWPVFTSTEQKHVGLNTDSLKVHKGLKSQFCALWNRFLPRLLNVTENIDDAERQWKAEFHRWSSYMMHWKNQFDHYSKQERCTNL
Chain of Acetylcholinesterase (Rattus norvegicus) (P37136 whole entry): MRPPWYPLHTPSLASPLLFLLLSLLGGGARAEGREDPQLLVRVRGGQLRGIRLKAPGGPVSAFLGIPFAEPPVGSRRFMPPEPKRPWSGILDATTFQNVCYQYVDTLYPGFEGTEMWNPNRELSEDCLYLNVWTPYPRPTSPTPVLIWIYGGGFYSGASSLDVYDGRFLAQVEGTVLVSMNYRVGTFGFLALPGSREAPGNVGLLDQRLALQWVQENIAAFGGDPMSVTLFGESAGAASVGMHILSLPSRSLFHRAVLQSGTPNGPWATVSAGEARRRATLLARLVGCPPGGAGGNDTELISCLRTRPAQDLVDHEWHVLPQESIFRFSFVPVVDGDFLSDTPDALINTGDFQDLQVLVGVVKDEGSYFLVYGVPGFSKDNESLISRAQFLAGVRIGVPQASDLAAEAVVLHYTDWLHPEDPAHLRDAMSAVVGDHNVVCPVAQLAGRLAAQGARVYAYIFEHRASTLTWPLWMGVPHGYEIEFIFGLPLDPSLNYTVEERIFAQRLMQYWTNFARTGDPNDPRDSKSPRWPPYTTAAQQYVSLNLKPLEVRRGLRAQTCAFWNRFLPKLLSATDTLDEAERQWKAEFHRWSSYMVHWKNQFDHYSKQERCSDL

In turn, `C#CCN(C)C(C)Cc1cccc(OC(=O)N(C)CCCCCC)c1` (single isomer, unassigned; (-)) came in with an IC50 in data set [1] of 3400 nM.

As for `COc1cc(/C=C/C(=O)NCCNc2c3c(nc4ccccc24)CCCC3)ccc1OCc1ccccc1`, the Selectivity Index in data set [2] is 1. Besides, the IC50 in [3] worked out at 55.9 nM; in data set [4], 52.6 nM; in [5], 55.1 nM; in data set [6] it was 15.8 nM.

On to `Cc1cc(=O)oc2ccc(OC/C=C/CCn3cnc4c(N5CCCCC5)ncnc43)cc12`, for which the IC50 in data set [7] amounted to 11.9 µM; in data set [8], 6.8 µM.

Turning to `COc1ccc2nc3c(c(NCCCCCCCCN(CC(=O)Nc4ccc5ccccc5c4)C(=O)/C=C/c4ccc(O)c(OC)c4)c2c1)CCCC3`, in [9], the viability at 1000 µM was 59.4%. Also, the Ratio in data set [10] came out at 4.29. In data set [11], the midpoint of inhibition, the IC50, lay at 68.2 nM.

Regarding `COc1ccc2[nH]cc(CCNC(=O)CN(CCCC3CCN(Cc4ccccc4)CC3)C(=O)/C=C/c3ccc(O)c(OC)c3)c2c1`, the figures for the half-maximal inhibitory concentration (IC50) in data set [12] and in data set [13] were 26.2 nM and 17.5 nM, respectively.

For `O=C(/C=C/c1ccc(OCc2ccccc2)cc1)NCCNc1c2c(nc3ccccc13)CCCC2`, the Selectivity Index in data set [2] was determined as 0.7. The IC50 in data set [3] turned out to be 86.1 nM; in data set [4], 42.6 nM; in data set [5], 60.6 nM; in data set [6] it was 29.5 nM.

On to `CN(C)C(=O)Oc1ccccc1-c1nc2ccccc2s1`, for which the half-maximal inhibitory concentration (IC50) in data set [14] was determined as 20.9 µM.

On to `c1ccc2c(NCc3ccc(-c4ccc(CNc5c6c(nc7ccccc57)CCCC6)cc4)cc3)c3c(nc2c1)CCCC3`, for which the IC50 in data set [15] is 0.86 nM; in data set [19], 2770 nM; in data set [20] it was 3.61 nM. Moreover, the figures for the inhibition in data set [16], in data set [17] and in data set [18] were 75.5%, 61.8% and 89.7%, respectively.

As to `CC(C(=O)NCCCCCCNc1c2c(nc3ccccc13)CCCC2)c1ccc(-c2ccccc2)c(F)c1` (centres undefined), the inhibition in data set [21] stood at 31%.

In [1], `C#CCN(C)C(C)Cc1cccc(OC(=O)N(C)CCCCCC)c1` (single isomer, unassigned; (+)) displayed an IC50 of 2000 nM.

With `C#CCN(C)C(C)Cc1cccc(OC(=O)N(C)CCCCCC)c1` (racemic), the IC50 in data set [22] was found to be 720 nM.

As for `Cc1cc(=O)oc2cc(OC/C=C/CCn3cnc4c(N5CCCC5)ncnc43)ccc12`, half-maximal inhibition in data set [23] (IC50) was put at 4.65 µM.
